One experiment deals with T1, hCB1 (Homo sapiens, UniProt P21554).
T1 construct: host or cells: CHO (hCB1-CHO), crude membrane homogenates
The experiment can be described thus: Competitive [3H]CP55,940 binding on membrane homogenates of hCB1-CHO cells. As for the experimental part: (§1) CHO cell lines stably transfected with human CB1 (hCB1-CHO; obtained from Euroscreen, Gosselies, Belgium) or human CB2 (hCB2-CHO; obtained from Paul L. Prather, Department of Pharmacology and Toxicology, College of Medicine, University of Arkansas for Medical Sciences, USA) were cultured in Ham's F12 medium or Dulbecco's modified Eagle's medium (DMEM) with 10% fetal calf serum, 100 IU/mL penicillin, 100 μg/mL streptomycin and 250 or 400 μg/mL of the selection antibiotic Geneticin (G418), respectively. The cells were cultured in a humidified atmosphere with 5% CO2 at 37°C. Confluent cell layers of 175-cm^2 flasks were scraped; cells were harvested by centrifugation (800 rpm, 3 min), counted by trypan blue staining, suspended in 200 μL of 50 mM tris(hydroxymethyl)aminomethane (TRIS; pH 7.4) at 4°C and stored at −32°C until the binding experiment.
(§2) Competitive binding experiments were performed with crude membrane homogenates obtained from hCB1-CHO or hCB2-CHO cells as described above. […] Incubations were terminated by rapid filtration through a GF-B glass fibre filter pre-incubated for 90 min at room temperature in freshly prepared 0.5% polyvinylpyrrolidone + 0.1% Tween 20 solution using a 48-well cell harvester (Brandel, Gaithersburg, MD, USA).
Binding data were analysed using GraphPad Prism version 2.01 (GraphPad Software, Inc., San Diego, CA, USA) by non-linear regression to provide estimates of the half maximal inhibitory concentration (IC50) values and the […]. […] The corresponding inhibition constants (Ki) of test compounds were derived from the IC50 values using the Cheng-Prusoff equation [49]. All binding experiments were performed in triplicates, and data are given as mean values from independent experiments.

The next experiment concerns the target T2, hCB2 (Homo sapiens, UniProt P34972).
T2 construct: host or cells: CHO (hCB2-CHO), crude membrane homogenates
Description: Competitive [3H]CP55,940 binding on membrane homogenates of hCB2-CHO cells. The note with it: for Binding to hCB2 in words: hCB2-CHO; for Selectivity, pKi (CB2) – pKi (CB1): pKi = -log (Ki); for Selectivity, pKi (CB2) – pKi (CB1) / Selectivity over hCB1: hCB2 versus hCB1. As to the method: as §1, §2
The corresponding inhibition constants (Ki) of test compounds were derived from the IC50 values using the Cheng-Prusoff equation [49]. All binding experiments were performed in triplicates, and data are given as mean values from independent experiments.

Experiment [1] addresses T3, CB2 receptors in mouse spleen tissue (Mus musculus, UniProt P47936).
T3 construct: 12-μm-thick coronal sections obtained from the spleens of three animals; from tissue; host or cells: spleen sections of female CD-1 mice
Description: Autoradiographic displacement of [3H]CP55,940 on coronal mouse spleen sections. Type of experiment: binding. The note with it: for receptor occupancy at 1 µM: read-out: Fractional occupancy of [3H]CP55,940 binding sites calculated by Gaddum equation; for Displacement of the specific binding of 6 nM [3H]CP55,940: mouse spleen sections, HD regions. As for the experimental part: Animal experiments were performed under procedures approved by the State of Saxony Animal Care and Use Committee and conducted in accordance with the German Law for the Protection of Animals. Female CD-1 mice (10 to 12 weeks old, 20 to 25 g), obtained from the Medizinisch-Experimentelles Zentrum der Universität Leipzig (Leipzig, Germany), were used for the experiments.
The animals were anesthetized and sacrificed, and their spleens were rapidly removed and frozen in isopentane at −35°C. The spleens were brought to −15°C in a cryostat (Microm International GmbH, Walldorf, Germany), and a series of 12-μm-thick coronal sections obtained from the spleens of three animals were collected in parallel on microscopic glass slides. The sections were dried at room temperature and stored at −35°C until they were processed for receptor binding autoradiography.
For autoradiographic experiments, the slides were brought to room temperature, dried in a stream of cold air, pre-incubated in a binding buffer (50 mM TRIS (pH 7.4) at 21°C, 5% BSA) for 15 min at room temperature and dried again in a stream of cold air. […] Samples were washed twice for 30 min at 4°C in 50 mM TRIS (pH 7.4) at 4°C, containing 1% BSA, dipped briefly in ice-cold deionized water (5 s), dried in a stream of cold air and exposed along with [^3H] standards (Amersham/GE Healthcare, Piscataway, NJ, USA) for 14 days to [^3H]-sensitive screen plates (Fuji Photo Film, Co. Ltd., Tokyo, Japan).
The image plates were analysed using a BAS-1800II system bioimaging analyser (Fuji Photo Film, Co. Ltd., Tokyo, Japan). Scan data were visualized and processed by computer-assisted microdensitometry (Aida version 2.31, Raytest Isotopenmessgeräte GmbH, Straubenhardt, Germany). Irregular regions of interest (ROIs) were drawn on selected areas of the spleen labelled as red pulp (low-density binding) and white pulp (high-density binding) according to Lynn and Herkenham and Massi et al..

[2] abbreviates: read-out: Affinity (Ki) towards hCB2.
The mark [3] stands for this setting: read-out: Affinity (Ki) towards hCB1.

Where two headings read alike, the source gives them in different places.

T3 sequence (P47936 whole entry): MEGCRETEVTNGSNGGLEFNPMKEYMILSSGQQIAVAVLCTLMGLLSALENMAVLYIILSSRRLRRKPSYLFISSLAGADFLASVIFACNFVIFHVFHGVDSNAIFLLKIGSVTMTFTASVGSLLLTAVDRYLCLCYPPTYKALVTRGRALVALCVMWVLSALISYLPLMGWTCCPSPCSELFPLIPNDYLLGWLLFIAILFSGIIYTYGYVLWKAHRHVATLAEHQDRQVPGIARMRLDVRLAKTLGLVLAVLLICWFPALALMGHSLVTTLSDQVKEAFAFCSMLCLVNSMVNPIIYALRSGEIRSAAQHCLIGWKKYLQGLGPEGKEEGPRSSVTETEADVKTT
T2 sequence (P34972 whole entry): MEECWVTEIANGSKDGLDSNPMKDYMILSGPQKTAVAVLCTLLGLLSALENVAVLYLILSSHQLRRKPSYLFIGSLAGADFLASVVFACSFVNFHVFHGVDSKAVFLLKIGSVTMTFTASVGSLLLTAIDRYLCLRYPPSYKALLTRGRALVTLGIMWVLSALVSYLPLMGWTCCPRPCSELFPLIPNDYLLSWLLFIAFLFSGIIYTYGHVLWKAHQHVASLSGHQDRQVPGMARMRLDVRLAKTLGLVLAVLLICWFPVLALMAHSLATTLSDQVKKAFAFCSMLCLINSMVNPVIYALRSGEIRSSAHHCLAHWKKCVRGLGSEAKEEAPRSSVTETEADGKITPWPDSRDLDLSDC
T1 sequence (P21554 whole entry): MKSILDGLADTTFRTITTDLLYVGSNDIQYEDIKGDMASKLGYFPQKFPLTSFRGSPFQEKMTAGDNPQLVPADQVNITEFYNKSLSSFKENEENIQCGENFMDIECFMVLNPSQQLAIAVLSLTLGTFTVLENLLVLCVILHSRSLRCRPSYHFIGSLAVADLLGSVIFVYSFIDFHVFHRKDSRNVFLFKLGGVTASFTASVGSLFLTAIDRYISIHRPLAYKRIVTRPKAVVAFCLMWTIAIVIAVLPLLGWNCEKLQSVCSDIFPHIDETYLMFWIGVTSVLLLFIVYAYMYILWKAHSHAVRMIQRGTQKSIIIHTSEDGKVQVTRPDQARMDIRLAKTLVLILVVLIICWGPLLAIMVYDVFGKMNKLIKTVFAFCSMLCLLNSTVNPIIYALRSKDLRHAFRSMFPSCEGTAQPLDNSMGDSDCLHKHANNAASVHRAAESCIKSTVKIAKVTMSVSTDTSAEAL

As to `N#Cc1cc(F)ccc1-c1noc(CCC(=O)Nc2cnc3ccccc3c2)n1` [Compound 2a, 3-(3-(2-Cyano-4-fluorophenyl)-1,2,4-oxadiazol-5-yl)-N-(quinolin-3-yl)propanamide], the “Binding to hCB1 in words” value on hCB1 (hCB1-CHO) is given as “could not be observed”. Moreover, the “Fold lower hCB2 affinity” value on hCB2 (in comparison to 6a) was “approximately 100 fold”. The inhibitory constant (Ki) (commonly a measure of affinity in units of concentration, obtained from inhibition or displacement) on hCB2 (setting [2]) stood at 722 nM.

For `O=C(CCc1nc(-c2ccc(F)nc2)no1)Nc1cnc2ccccc2c1` [Compound 2b, 3-(3-(6-Fluoropyridin-3-yl)-1,2,4-oxadiazol-5-yl)-N-(quinolin-3-yl)propanamide], the “Binding to hCB1 in words” value at hCB1 (hCB1-CHO) is reported as “could not be observed”. In addition, the “Binding to hCB2 in words” value at hCB2 is “low affinity”. The Ki on hCB2 (setting [2]) came out at 2290 nM.

Take `O=C(CCc1nc(-c2ccc(Br)nc2)no1)Nc1cnc2ccccc2c1` [Compound 2c, 3-(3-(6-Bromopyridin-3-yl)-1,2,4-oxadiazol-5-yl)-N-(quinolin-3-yl)propanamide]: the “Binding to hCB1 in words” value at hCB1 (hCB1-CHO) is recorded as “could not be observed”. The “Binding to hCB2 in words” value at hCB2 is recorded as “low affinity”. Besides, the Ki at hCB2 (setting [2]) was above 100000 nM.

Consider `CCn1c2ccccc2c2cc(NC(=O)CCc3nc(-c4ccc(F)nc4)no3)ccc21` [Compound 6b, 3-(3-(6-Fluoropyridin-3-yl)-1,2,4-oxadiazol-5-yl)-N-(9-ethyl-9H-carbazol-3-yl)propanamide], for which the Ki at hCB1 (setting [3]) turned out to be 1560 nM. At hCB2, the “Binding to hCB2 in words” value is reported as “low affinity” and the “Selectivity, pKi (CB2) – pKi (CB1)” value was 1.06. Further, the inhibition constant Ki on hCB2 (setting [2]) was 135 nM.

Take `CCn1c2ccccc2c2cc(NC(=O)CCc3nc(-c4ccc([N+](=O)[O-])cc4F)no3)ccc21` [Compound 6d, 3-(3-(2-Fluoro-4-nitrophenyl)-1,2,4-oxadiazol-5-yl)-N-(9-ethyl-9H-carbazol-3-yl)propanamide]: the Ki on hCB1 (setting [3]) is 7470 nM. In addition, at hCB2, the inhibitory constant (Ki) amounted to 12.5 nM and the “Selectivity, pKi (CB2) – pKi (CB1)” value was 2.78.

Regarding `CCn1c2ccccc2c2cc(NC(=O)CCc3nc(-c4ccc(F)cc4Br)no3)ccc21` [Compound 6e, 3-(3-(2-Bromo-4-fluorophenyl)-1,2,4-oxadiazol-5-yl)-N-(9-ethyl-9H-carbazol-3-yl)propanamide], the Ki on hCB1 (hCB1-CHO, read-out: Ki hCB1) is above 1000 nM. Moreover, the receptor occupancy at 1 µM in experiment [1] was 97%. Moreover, on hCB2, the “Selectivity over hCB1” value was “more than 1,000 fold”.

Regarding `CCn1c2ccccc2c2cc(NC(=O)CCc3nc(-c4ccc([N+](=O)[O-])cc4Br)no3)ccc21` [Compound 6g, 3-(3-(2-Bromo-4-nitrophenyl)-1,2,4-oxadiazol-5-yl)-N-(9-ethyl-9H-carbazol-3-yl)propanamide], on hCB1 (setting [3]), the inhibition constant Ki came out at 397 nM. Also, on hCB2, the inhibition constant Ki was found to be 2.38 nM and the “Selectivity, pKi (CB2) – pKi (CB1)” value is listed as 2.22.

As for `CCn1c2ccccc2c2cc(NC(=O)CCc3nc(-c4ccc(F)cc4F)no3)ccc21` [Compound 6h, 3-(3-(2,4-Difluorophenyl)-1,2,4-oxadiazol-5-yl)-N-(9-ethyl-9H-carbazol-3-yl)propanamide], the inhibition constant Ki on hCB1 (hCB1-CHO, read-out: Ki hCB1) is above 1000 nM. For the same compound, the receptor occupancy at 1 µM in experiment [1] is 83%. In addition, on hCB2, the affinity, expressed as Ki, was 39.4 nM and the “Selectivity over hCB1” value was “more than 1,000 fold”.

As for `O=C(CCc1nc(-c2ccc(F)cc2F)no1)Nc1cn(Cc2ccccc2)c2ccccc12` [Compound 7h, 3-(3-(2,4-Difluorophenyl)-1,2,4-oxadiazol-5-yl)-N-(1-benzyl-1H-indol-3-yl)-propanamide], at hCB1 (hCB1-CHO), the “Binding to hCB1 in words” value was “Weak affinity”. Further, the Ki was 6010 nM on hCB1 (setting [3]) and above 100000 nM at hCB2 (setting [2]). For the same compound, the “Binding to hCB2 in words” value at hCB2 is “lost”.

On to `Cc1c(C(=O)NN2CCCCC2)nn(-c2ccc(Cl)cc2Cl)c1-c1ccc(Cl)cc1` [SR141716A], for which, in experiment [1] (1 μM compound, 6 nM [3H]CP55,940, mouse spleen), the “Specific CP55,940 binding remaining” value worked out at 94%. Moreover, the “Displacement of the specific binding of 6 nM [3H]CP55,940” value in experiment [1] (1 μM compound) was “nearly no displacement”.

Consider `CCCCCCC(C)(C)c1ccc([C@@H]2C[C@H](O)CC[C@H]2CCCO)c(O)c1` [^3H]CP55,940], for which the “Density of specific binding sites” value in experiment [1] (6 nM [3H]CP55,940, mouse spleen) is listed as 150 ± 25 fmol/mg wet weight. Moreover, the “Specific binding as share of total binding” value in experiment [1] (mouse spleen autoradiography) is reported as “approximately 90%”.

With SR144528, the “Displacement of the specific binding of 6 nM [3H]CP55,940” value in experiment [1] (1 μM compound) is listed as 78%.
